# Test results taken from patent US5070210A, “Novel ketenimines as intermediates for insecticides” (ICI Americas Inc., priority 1990, dated 1991).
# Assays:
# Type in all cases: in vivo
# [1] = system: Aster Leafhopper [Macrosteles fascifrens (Stal)]; experiment: Aster leafhopper insecticidal test; conditions: adults/nymphs, percent in solution; 48 hours
# Method in brief: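 LC50 values, given as percent of test compound in the dip solution, were derived from dosage-mortality curves over concentrations from 0.05% downward. Mortality was counted 48 hours after ten leafhopper adults/nymphs were enclosed on treated seedlings. The seedlings were oats, about 10 cm tall, briefly dipped in 50-50 acetone-water.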
# [2] = system: Tobacco Budworm [Heliothis virescens (Fabricius)] eggs; experiment: Tobacco budworm egg test; conditions: 2-day old eggs, percent in solution
# Method in brief: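 2-day eggs on paper towel, acetone dip, 0.1% and below; petri dish with larval diet, 78° F. Mortality read after control hatch and larval feeding. LC50 = % compound in solution, from dose-mortality curve.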
# [3] = system: Cabbage Looper [Trichoplusia ni (Hubner)]; experiment: Cabbage looper insecticidal test; conditions: second-instar larvae, percent in solution; 3-5 days
# Method in brief: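 LC50 values, given as percent test compound in solution, were calculated from dosage-mortality curves. Squash cotyledons were immersed 2-3 s in acetone-water (50-50) dilutions starting at 0.1%, dried on a screen, then infested with five second-instar larvae. Mortality was read 3-5 days on.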
# [4] = system: Housefly [Musca domestica]; experiment: Housefly insecticidal test; conditions: μg per 25 female flies; mortality after 48 hours
# Method in brief: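 LC50, as μg compound per 25 female flies, comes from dosage-mortality curves with doses from 100 μg downward. Residues were made by evaporating acetone plus 0.01% peanut oil in dishes, onto which 1-2-day-old females were caged; deaths were counted after 48 hours.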
# [5] = system: Maize weevil [Sitophilus Zeamais (Motschulsky)]; experiment: Maize weevil insecticidal test; conditions: adult weevils, percent in solution; 48 hours
# Method in brief: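 LC50, in percent of compound in solution, was derived from dosage-mortality curves after 48 h at about 25 °C. Ten adult weevils per container fed on four corn seeds briefly immersed in acetone:water (50:50) solutions of up to 0.01% and dried.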
SMILES,"LC50, LH [1] [%]","LC50, TBW, E (TBW-E) [2] [%]","LC50, CL [3] [%]","LC50, HF [4] [µg]","LC50, MW [5] [%]"
CC(C)C(=Nc1cccc(C(C)(C)C)c1)OCc1cccc(Oc2ccc(F)cc2)c1 [Compound 350],> 0.05,> 0.1,0.0045,> 100,> 0.01
CC(C)C(=Nc1ccc(Br)cc1F)OCc1cccc(Oc2ccc(F)cc2)c1 [Compound 351],> 0.05,> 0.1,0.0007,26,> 0.01
CSc1ccc(N=C(OCc2ccc(F)c(Oc3ccccc3)c2)C(C)C)cc1 [Compound 353],> 0.05,> 0.1,> 0.1,< 100,> 0.01
Cc1ccc(N=C(OCc2ccc(F)c(Oc3ccccc3)c2)C(C)C)cc1F [Compound 354],< 0.05,0.018,> 0.1,< 100,0.0068
Cc1ccc(N=C(OCc2ccc(F)c(Oc3ccc(F)cc3)c2)C(C)C)cc1F [Compound 355],< 0.05,> 0.1,> 0.1,< 100,> 0.01
Cc1ccc(N=C(OCc2ccc(F)c(Oc3ccccc3)c2)C(C)C)cc1Cl [Compound 356],< 0.05,0.025,> 0.1,< 100,> 0.01
Cc1ccc(N=C(OCc2ccc(F)c(Oc3ccc(F)cc3)c2)C(C)C)cc1Cl [Compound 357],< 0.05,> 0.1,> 0.1,< 100,0.01
Cc1cc(N=C(OCc2ccc(F)c(Oc3ccccc3)c2)C(C)C)ccc1Br [Compound 358],< 0.05,> 0.1,> 0.1,< 100,> 0.01
Cc1cc(N=C(OCc2ccc(F)c(Oc3ccc(F)cc3)c2)C(C)C)ccc1Br [Compound 359],0.05,0.023,> 0.1,< 100,> 0.01
CCc1ccc(N=C(OCc2ccc(F)c(Oc3ccccc3)c2)C(C)C)cc1 [Compound 360],< 0.05,> 0.1,0.006,< 100,> 0.01
CCc1ccc(N=C(OCc2ccc(F)c(Oc3ccc(F)cc3)c2)C(C)C)cc1 [Compound 361],< 0.05,0.04,0.001,< 100,> 0.01
CSc1cccc(N=C(OCc2ccc(F)c(Oc3ccccc3)c2)C(C)C)c1 [Compound 362],> 0.05,> 0.1,> 0.1,< 100,> 0.01
COc1ccc(N=C(OCc2ccc(F)c(Oc3ccc(F)cc3)c2)C(C)C)cc1OC [Compound 363],> 0.05,> 0.1,> 0.1,< 100,> 0.01
CC(C)C(=Nc1ccc(Br)c(C(F)(F)F)c1)OCc1ccc(F)c(Oc2ccc(F)cc2)c1 [Compound 364],< 0.05,0.025,0.00045,< 100,> 0.01
CC(C)C(=Nc1ccc(C(F)(F)F)cc1)OCc1cccc(Oc2ccc(Cl)cc2)c1 [Compound 365],< 0.05,0.038,0.00025,> 100,> 0.01
CC(C)C(=Nc1ccc2c(c1)OCO2)OCc1ccc(F)c(Oc2ccc(Cl)cc2)c1 [Compound 366],0.05,0.012,0.0007,< 100,> 0.01
CC(C)C(=Nc1ccc2c(c1)OCO2)OCc1cccc(Oc2ccc(C(C)(C)C)cc2)c1 [Compound 367],> 0.05,> 0.1,< 0.1,> 100,> 0.01

SMILES,"LC50, LH [1] [%]","LC50, TBW, E (TBW-E) [2] [%]","LC50, CL [3] [%]","LC50, HF [4] [µg]","LC50, MW [5] [%]"
CC(C)C(=Nc1ccc(F)cc1)OCCc1cccc(Oc2ccccc2)c1 [Compound 456],> 0.05,> 0.05,0.017,> 100,> 0.01
CC(C)C(=Nc1ccc2c(c1)OCO2)OCc1cccc(Oc2ccc(Cl)cc2)n1 [Compound 466],> 0.05,> 0.1,0.0008,13,0.01
CC(C)C(=Nc1ccc(F)c(Cl)c1)OCc1ccc(OCc2ccccc2)cc1 [Compound 475],> 0.05,> 0.1,0.008,> 100,> 0.01
C=CCOc1cccc(COC(=Nc2ccc(F)c(Cl)c2)C(C)C)c1 [Compound 479],> 0.05,> 0.1,0.013,66,> 0.01
CC(C)C(=Nc1ccc(F)c(Cl)c1)OCc1cccc(OCc2ccc(F)cc2)c1 [Compound 490],> 0.05,> 0.1,0.0045,> 100,> 0.01
CC(C)C(=Nc1ccc(F)c(Cl)c1)OCc1cccc(Oc2ccc(Br)cc2)n1 [Compound 492],> 0.05,0.015,0.00028,15,> 0.01
CC(C)C(=Nc1ccc(F)c(Cl)c1)OCc1cccc(Nc2ccc(F)cc2)c1 [Compound 512],> 0.05,> 0.1,0.003,35,> 0.01
CC(C)C(=Nc1cccc(C(F)(F)F)c1)OCc1cccc(Nc2ccc(F)cc2)c1 [Compound 513],> 0.05,> 0.1,0.007,81,> 0.01
CC(C)C(=Nc1ccc(Cl)c(Cl)c1)OCc1cccc(Nc2ccc(F)cc2)c1 [Compound 514],> 0.05,> 0.1,0.008,> 100,> 0.01
CC(C)C(=Nc1ccc2c(c1)OCO2)OCc1cc(Oc2ccc(F)cc2)ccn1 [Compound 515],> 0.05,> 0.1,0.0015,28,> 0.01
CC(C)C(=Nc1ccc(F)c(Cl)c1)OCc1cc(Oc2ccc(Cl)cc2)ccn1 [Compound 516],> 0.05,> 0.1,0.008,> 100,> 0.01
CC(C)C(=Nc1cccc(C(F)(F)F)c1)OCc1ccnc(Oc2ccc(Cl)cc2)c1 [Compound 517],> 0.05,0.04,0.0008,80,> 0.01
CC(C)C(=Nc1cccc(C(F)(F)F)c1)OCc1cccc(Oc2ccc(Cl)cn2)c1 [Compound 518],> 0.05,> 0.1,0.00075,> 100,> 0.01
C#CC(OC(=Nc1cccc(C(F)(F)F)c1)C(C)C)c1cccc(Oc2ccccc2)c1 (centres unmarked) [Compound 519],> 0.05,> 0.1,0.0037,60,> 0.01
CCC(=Nc1ccc(F)c(F)c1)OCc1coc(Cc2ccccc2)c1 [Compound 524],> 0.05,> 0.1,> 0.1,5.2,> 0.01
CC(C)(C)C(=Nc1ccc(F)c(F)c1)OCc1coc(Cc2ccccc2)c1 [Compound 525],> 0.05,> 0.1,< 0.1,> 100,> 0.01
CC(=Nc1ccc(F)c(F)c1)OCc1coc(Cc2ccccc2)c1 [Compound 526],> 0.05,> 0.1,> 0.1,8.3,> 0.01
